Laboratory results: the supplement of paper PMC13380429

What was measured:
Settings in all cases: 72 h
U2OS [1] = assay: drug sensitivity score (DSS) for viability; higher = more toxic; extreme values may be limits of the assay
Calu-3 [2] = assay: as above
HepG2 [3] = assay: as above
Vero E6 [4] = assay: as above
U2OS [5] = assay: relative viability EC50 (midpoint between 100% and the lowest measured viability); higher = less toxic
Calu-3 [6] = assay: as above
HepG2 [7] = assay: as above
Vero E6 [8] = assay: as above
U2OS [9] = assay: cell viability relative to DMSO; higher = less toxic
Calu-3 [10] = assay: as above
HepG2 [11] = assay: as above
Vero E6 [12] = assay: as above
Caco-2 [13] = assay: drug sensitivity score (DSS) for viability; higher = more toxic; extreme values may be limits of the assay
Caco-2 [14] = assay: relative viability EC50 (midpoint between 100% and the lowest measured viability); higher = less toxic
Caco-2 [15] = assay: cell viability relative to DMSO; higher = less toxic

| SMILES | drug sensitivity score (U2OS [1]) | drug sensitivity score (Calu-3 [2]) | drug sensitivity score (HepG2 [3]) | drug sensitivity score (Vero E6 [4]) | relative viability EC50 (U2OS [5]) [µM] | relative viability EC50 (Calu-3 [6]) [µM] | relative viability EC50 (HepG2 [7]) [µM] | relative viability EC50 (Vero E6 [8]) [µM] | cell viability (U2OS [9]; 1 nM) [%] | cell viability (U2OS [9]; 10 nM) [%] | cell viability (U2OS [9]; 100 nM) [%] | cell viability (U2OS [9]; 1000 nM) [%] | cell viability (U2OS [9]; 10000 nM) [%] | cell viability (Calu-3 [10]; 1 nM) [%] | cell viability (Calu-3 [10]; 10 nM) [%] | cell viability (Calu-3 [10]; 100 nM) [%] | cell viability (Calu-3 [10]; 1000 nM) [%] | cell viability (Calu-3 [10]; 10000 nM) [%] | cell viability (HepG2 [11]; 1 nM) [%] | cell viability (HepG2 [11]; 10 nM) [%] | cell viability (HepG2 [11]; 100 nM) [%] | cell viability (HepG2 [11]; 1000 nM) [%] | cell viability (HepG2 [11]; 10000 nM) [%] | cell viability (Vero E6 [12]; 1 nM) [%] | cell viability (Vero E6 [12]; 10 nM) [%] | cell viability (Vero E6 [12]; 100 nM) [%] | cell viability (Vero E6 [12]; 1000 nM) [%] | cell viability (Vero E6 [12]; 10000 nM) [%] | drug sensitivity score (Caco-2 [13]) | relative viability EC50 (Caco-2 [14]) [µM] | cell viability (Caco-2 [15]; 1 nM) [%] | cell viability (Caco-2 [15]; 10 nM) [%] | cell viability (Caco-2 [15]; 100 nM) [%] | cell viability (Caco-2 [15]; 1000 nM) [%] | cell viability (Caco-2 [15]; 10000 nM) [%] |
| --- | --- | --- | --- | --- | --- | --- | --- | --- | --- | --- | --- | --- | --- | --- | --- | --- | --- | --- | --- | --- | --- | --- | --- | --- | --- | --- | --- | --- | --- | --- | --- | --- | --- | --- | --- |
| CN(C)N(C)C(=O)[C@@]1(Cc2ccccc2)CCCN(C(=O)[C@@H](Cc2c[nH]c3ccccc23)NC(=O)C(C)(C)N)C1 [anamorelin] | 0 | 0 | 0 | 0 | > 10 | > 10 | > 10 | > 10 | 103 | 100 | 104 | 102 | 99.5 | 85.1 | 86.9 | 91.7 | 94.4 | 89.8 | 113 | 99.6 | 106 | 102 | 103 | 103 | 107 | 101 | 104 | 95.4 |  |  |  |  |  |  |  |
| C[C@@H]1CCC[C@H](C)N1NC(=O)c1ccc(Cl)c(S(N)(=O)=O)c1 [clopamide] |  | 0 |  | 0 |  | > 10 |  | > 10 |  |  |  |  |  | 102 | 106 | 104 | 104 | 95.1 |  |  |  |  |  | 99.4 | 102 | 104 | 99.4 | 105 | 0 | > 10 | 94.5 | 104 | 110 | 105 | 104 |
| CN1[C@@H]2CC[C@H]1C[C@@H](OC1c3ccccc3CCc3ccccc31)C2 [deptropine] | 0 | 1.4 | 1 | 1.6 | > 10 |  | > 10 | > 10 | 101 | 106 | 99.9 | 103 | 93 | 98.8 | 107 | 108 | 97.8 | 72.8 | 102 | 96.3 | 102 | 98.6 | 76.7 | 96.4 | 93.8 | 98.8 | 93.8 | 77.3 | 0.3 | > 10 | 92.1 | 97.5 | 96.3 | 92.5 | 83.4 |
| CN1CCN(c2ccc(C(=O)Nc3n[nH]c4ccc(Cc5cc(F)cc(F)c5)cc34)c(NC3CCOCC3)c2)CC1 [entrectinib] |  | 9 | 9.7 | 8.7 |  | 1.6 | 1.45 | 1.76 |  |  |  |  |  | 96.7 | 95.8 | 98.5 | 76.9 | 1.7 | 104 | 100 | 102 | 71.9 | 0.1 | 98.5 | 101 | 99.4 | 80.5 | 0.3 | 8.3 | 1.74 | 98.7 | 97 | 100 | 81.2 | 5.3 |
| O=C1OCCN1/N=C/c1ccc([N+](=O)[O-])o1 [furazolidone] | 0 | 0 | 0.8 | 0 | > 10 | > 10 |  | > 10 | 101 | 93.2 | 97.1 | 96.6 | 96.5 | 111 | 97.6 | 100 | 101 | 110 | 99.3 | 104 | 102 | 111 | 70.5 | 106 | 97.8 | 105 | 98.2 | 97.4 | 0.1 | > 10 | 101 | 90.2 | 95.6 | 93.6 | 86.1 |
| N#Cc1ccc(C(c2ccc(C#N)cc2)n2cncn2)cc1 [letrozole] | 0 | 0 |  | 0 | > 10 | > 10 |  | > 10 | 104 | 105 | 99.6 | 107 | 101 | 97.1 | 101 | 101 | 99.1 | 99 |  |  |  |  |  | 106 | 106 | 114 | 99.9 | 105 | 0 | > 10 | 106 | 107 | 96.2 | 105 | 97.3 |
| C[C@H](CCC(=O)O)[C@H]1CC[C@H]2[C@@H]3CC[C@@H]4C[C@H](O)CC[C@]4(C)[C@H]3CC[C@]12C [lithocholic-acid] |  | 0 | 0 | 0 |  | > 10 | > 10 | > 10 |  |  |  |  |  | 98.9 | 91.2 | 98.2 | 93.3 | 105 | 102 | 96.4 | 108 | 90.2 | 111 | 102 | 101 | 102 | 101 | 98.7 | 0 | > 10 | 106 | 96.9 | 101 | 98 | 99 |
| CC[C@H](C)C(=O)O[C@H]1C[C@@H](C)C=C2C=C[C@H](C)[C@H](CC[C@@H]3C[C@@H](O)CC(=O)O3)[C@H]21 [lovastatin] | 2.8 | 0.2 | 0.1 | 0 |  | > 10 | > 10 | > 10 | 94.1 | 108 | 96.2 | 96.6 | 55.4 | 87.8 | 106 | 96.3 | 111 | 81.6 | 91.2 | 109 | 96.4 | 92.3 | 88.7 | 100 | 100 | 96.2 | 102 | 88.1 | 0 | > 10 | 92.2 | 85.7 | 84.2 | 106 | 101 |
| Cc1c(N(C)CS(=O)(=O)O)c(=O)n(-c2ccccc2)n1C [metamizole] |  | 0 | 0 | 0 |  | > 10 | > 10 | > 10 |  |  |  |  |  | 106 | 90.6 | 102 | 95.7 | 91.1 | 99.9 | 109 | 100 | 91.6 | 102 | 97.5 | 97.1 | 95.6 | 102 | 101 | 0 | > 10 | 98.5 | 107 | 101 | 104 | 104 |
| Cc1ccsc1/C=C/C1=NCCCN1C [morantel] | 0 | 0 |  | 0 | > 10 | > 10 |  | > 10 | 98.2 | 104 | 97.2 | 100 | 96.9 | 94.5 | 111 | 91.1 | 101 | 96.9 |  |  |  |  |  | 108 | 104 | 110 | 101 | 96.8 | 0 | > 10 | 94.6 | 86 | 72.7 | 94.6 | 84.2 |
| Nc1nc2[nH]cc(CCc3ccc(C(=O)N[C@@H](CCC(=O)O)C(=O)O)cc3)c2c(=O)[nH]1 [pemetrexed] | 1.4 | 3.7 | 11.8 | 6.5 |  | > 10 | 0.558 | 0.768 | 103 | 95.5 | 107 | 100 | 68 | 108 | 91.9 | 86.6 | 83.3 | 76 | 85.4 | 100 | 97.3 | 39.4 | 20.1 | 85.2 | 99.1 | 91.6 | 70.9 | 45 | 1.2 | > 10 | 105 | 86.8 | 87.4 | 96.5 | 79.3 |
| CC(C)(Sc1cc(C(C)(C)C)c(O)c(C(C)(C)C)c1)Sc1cc(C(C)(C)C)c(O)c(C(C)(C)C)c1 [probucol] | 0 | 0 |  | 0 | > 10 | > 10 |  | > 10 | 104 | 96.1 | 101 | 96.2 | 98.7 | 98.6 | 106 | 99.9 | 103 | 96 |  |  |  |  |  | 100 | 101 | 106 | 98.1 | 97.8 | 0 | > 10 | 104 | 96.3 | 106 | 102 | 102 |
| CC[C@H]1OC(=O)[C@@](C)(F)C(=O)[C@H](C)[C@@H](O[C@@H]2O[C@H](C)C[C@H](N(C)C)[C@H]2O)[C@](C)(OC)C[C@@H](C)C(=O)[C@H](C)[C@H]2N(CCCCn3cc(-c4cccc(N)c4)nn3)C(=O)O[C@]12C [solithromycin] | 0 | 0 | 3.1 | 0 | > 10 | > 10 |  | > 10 | 97.6 | 95.5 | 94.6 | 103 | 91 | 104 | 100 | 98.4 | 97.2 | 89.8 | 102 | 102 | 87.4 | 94.2 | 58.7 | 98.2 | 100 | 97.2 | 104 | 93.4 | 0 | > 10 | 105 | 90.6 | 101 | 107 | 93.3 |
| Oc1cccc(-c2c3nc(c(-c4cccc(O)c4)c4ccc([nH]4)c(-c4cccc(O)c4)c4nc(c(-c5cccc(O)c5)c5ccc2[nH]5)CC4)C=C3)c1 [temoporfin] | 1.8 | 0 | 0.1 | 1.5 |  | > 10 | > 10 | > 10 | 100 | 104 | 96.6 | 98.9 | 64.7 | 90 | 96.7 | 104 | 102 | 91.6 | 104 | 105 | 103 | 106 | 86.4 | 99.3 | 100 | 98.1 | 90.5 | 77.6 | 2.8 |  | 96.2 | 102 | 94.3 | 94.4 | 61.4 |
| c1ccc2[nH]c(-c3cscn3)nc2c1 [tiabendazole] |  | 0 | 0 | 0 |  | > 10 | > 10 | > 10 |  |  |  |  |  | 105 | 102 | 103 | 97.8 | 110 | 116 | 104 | 102 | 97.2 | 106 | 93.2 | 96.8 | 102 | 96.3 | 106 |  |  |  |  |  |  |  |
| Cc1cccc(Nc2ccncc2S(=O)(=O)NC(=O)NC(C)C)c1 [torasemide] |  | 0.1 |  | 0 |  | > 10 |  | > 10 |  |  |  |  |  | 100 | 100 | 96.5 | 110 | 85.6 |  |  |  |  |  | 105 | 101 | 102 | 99.2 | 103 | 0 | > 10 | 102 | 112 | 96.7 | 103 | 96.2 |
